Measurements reported in US20260028326A1, “COMPOUND BASED ON ISOINDOLINE-SUBSTITUTED GLUTARIMIDE BACKBONE AND USE THEREOF” (GLUETACS THERAPEUTICS (SHANGHAI) CO., LTD., priority 2022, published 2026).

Legend:
[1] = molecular target: IKZF1 protein (Homo sapiens (Human), UniProt Q13422+Q96SW2); experiment: Western-blot assay of substrate protein degradation in hPBMC, IKZF1; assay type: cell-based; conditions: for residual substrate protein level, IKZF1: hPBMC cells, compound 500 nM, 24 hours, Western blot
Description: (§1) After treating the cells with the compounds for 24 hours, the cells were collected and lysed using RIPA protein lysate containing phosphatase inhibitors. The lysate was then placed on ice for 30-60 minutes and centrifuged. The supernatant was aspirated as the extracted total cell protein. The protein concentration of the supernatant was determined using the conventional BCA (Bicinchoninic Acid) assay. The supernatant was then mixed with 4×SDS sample loading buffer, denatured at 95° C. for 5 minutes, and then subjected to SDS-PAGE electrophoresis on a polyacrylamide gel, followed by transfer to a nitrocellulose membrane (NC membrane). The membrane was blocked with blocking buffer at room temperature for 1-2 hours, and then antibody incubation and detection were carried out according to the antibody instructions provided by Cell Signaling Technology.
(§2) Half-Maximal Degradation Concentration value (the drug concentration required for degrading proteins by 50%, abbreviated as DC50) reads method: comparing the gray values of the Western blotting bands for the drug treatment with the gray values of the Western blotting band for the DMSO control, and reading the drug concentration range corresponding to the gray value of the Western blotting bands for the drug treatment which is equal to half of the gray value of the Western blotting band for the DMSO control.
(§3) DC50 value could also be calculated as follows: using software ImageJ to quantify the gray values of the Western blotting bands for the drug treatment, fitting the relationship curve between drug concentrations and gray values, and from the fitted curve, calculating the drug concentration corresponding to half of the gray value of the Western blotting band for the DMSO control.

[2] = molecular target: GSPT1 protein (Homo sapiens (Human), UniProt P15170+Q96SW2); experiment: Western-blot assay of substrate protein degradation in hPBMC, GSPT1; assay type: cell-based; conditions: for residual substrate protein level, GSPT1: hPBMC cells, compound 500 nM, 24 hours, Western blot
Description: as §1, §2, §3

[3] = molecular target: IKZF3 protein (Homo sapiens (Human), UniProt Q96SW2+Q9UKT9); experiment: Western-blot assay of substrate protein degradation in hPBMC, IKZF3; assay type: cell-based; conditions: for residual substrate protein level, IKZF3: hPBMC cells, compound 500 nM, 24 hours, Western blot
Description: as §1, §2, §3

[4] = molecular target: human Cereblon WT GST-tagged protein (Homo sapiens (Human), UniProt Q96SW2); experiment: CRBN-binding affinity, HTRF (CEREBLON BINDING kit)
Summary of the method: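 GST-tagged human WT Cereblon incubated with compound, then Thalidomide-Re tracer and anti-GST Eu antibody added. Displacement read by HTRF, reported as CRBN binding inhibition rate against blank control wells without protein.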

[5] = hPBMC, 24 h, serially diluted 0.03-1000 nM

GSPT1 protein, sequence (P15170 whole entry): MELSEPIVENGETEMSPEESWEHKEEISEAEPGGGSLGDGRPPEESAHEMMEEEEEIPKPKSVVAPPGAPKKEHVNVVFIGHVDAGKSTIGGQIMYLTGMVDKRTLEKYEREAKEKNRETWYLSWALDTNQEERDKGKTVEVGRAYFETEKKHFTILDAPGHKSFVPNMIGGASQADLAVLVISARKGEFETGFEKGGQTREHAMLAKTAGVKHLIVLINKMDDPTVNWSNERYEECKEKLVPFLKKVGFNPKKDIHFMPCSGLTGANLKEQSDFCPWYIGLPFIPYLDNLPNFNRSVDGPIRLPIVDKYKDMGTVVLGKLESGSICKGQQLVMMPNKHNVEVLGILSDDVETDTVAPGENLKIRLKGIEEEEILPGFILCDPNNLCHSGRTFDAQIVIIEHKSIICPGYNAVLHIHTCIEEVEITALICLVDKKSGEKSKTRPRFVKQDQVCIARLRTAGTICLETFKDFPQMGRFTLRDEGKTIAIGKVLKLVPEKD
GSPT1 protein, sequence (Q96SW2 whole entry): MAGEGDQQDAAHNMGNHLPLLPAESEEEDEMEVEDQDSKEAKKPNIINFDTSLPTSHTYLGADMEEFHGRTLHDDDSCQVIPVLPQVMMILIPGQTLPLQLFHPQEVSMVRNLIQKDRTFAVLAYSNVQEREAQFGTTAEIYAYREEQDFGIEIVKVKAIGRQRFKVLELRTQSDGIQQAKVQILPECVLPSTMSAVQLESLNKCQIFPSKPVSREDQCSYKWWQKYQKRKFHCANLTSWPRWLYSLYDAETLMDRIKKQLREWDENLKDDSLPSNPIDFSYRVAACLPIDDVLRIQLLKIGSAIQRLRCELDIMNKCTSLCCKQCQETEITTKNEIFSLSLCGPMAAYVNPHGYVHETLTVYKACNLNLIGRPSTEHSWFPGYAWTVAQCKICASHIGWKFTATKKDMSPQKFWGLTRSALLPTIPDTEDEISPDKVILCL
GSPT1 protein, sequence (Q16531 whole entry partner): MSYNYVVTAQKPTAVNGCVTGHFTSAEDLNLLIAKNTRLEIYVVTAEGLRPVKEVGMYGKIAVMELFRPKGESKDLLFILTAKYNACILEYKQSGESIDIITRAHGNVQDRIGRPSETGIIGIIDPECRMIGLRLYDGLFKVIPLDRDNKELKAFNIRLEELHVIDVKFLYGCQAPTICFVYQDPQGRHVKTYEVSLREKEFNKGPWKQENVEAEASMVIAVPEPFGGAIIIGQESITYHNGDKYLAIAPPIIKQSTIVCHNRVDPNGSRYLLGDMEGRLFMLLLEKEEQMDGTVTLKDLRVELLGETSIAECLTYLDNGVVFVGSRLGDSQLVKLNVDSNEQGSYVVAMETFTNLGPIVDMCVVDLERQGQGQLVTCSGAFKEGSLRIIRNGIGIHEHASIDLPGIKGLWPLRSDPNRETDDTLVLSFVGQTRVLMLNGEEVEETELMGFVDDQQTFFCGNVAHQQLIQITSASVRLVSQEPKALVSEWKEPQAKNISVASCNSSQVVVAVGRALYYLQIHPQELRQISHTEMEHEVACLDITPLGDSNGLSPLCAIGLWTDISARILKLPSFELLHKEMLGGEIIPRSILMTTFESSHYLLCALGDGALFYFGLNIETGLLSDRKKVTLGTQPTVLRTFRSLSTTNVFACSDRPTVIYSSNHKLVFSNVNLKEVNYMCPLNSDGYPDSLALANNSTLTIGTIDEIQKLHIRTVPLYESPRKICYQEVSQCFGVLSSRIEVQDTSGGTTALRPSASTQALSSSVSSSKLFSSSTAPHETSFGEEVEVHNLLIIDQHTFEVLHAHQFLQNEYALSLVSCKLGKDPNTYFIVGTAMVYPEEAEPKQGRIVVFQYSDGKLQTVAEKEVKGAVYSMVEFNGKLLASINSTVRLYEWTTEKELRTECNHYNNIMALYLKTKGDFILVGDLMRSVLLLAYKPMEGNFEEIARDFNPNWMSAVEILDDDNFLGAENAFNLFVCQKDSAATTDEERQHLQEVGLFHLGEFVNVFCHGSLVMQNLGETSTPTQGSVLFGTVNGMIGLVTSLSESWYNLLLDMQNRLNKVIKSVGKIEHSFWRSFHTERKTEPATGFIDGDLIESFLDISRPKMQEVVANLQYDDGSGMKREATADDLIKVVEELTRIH
IKZF3 protein, sequence (Q9UKT9 whole entry): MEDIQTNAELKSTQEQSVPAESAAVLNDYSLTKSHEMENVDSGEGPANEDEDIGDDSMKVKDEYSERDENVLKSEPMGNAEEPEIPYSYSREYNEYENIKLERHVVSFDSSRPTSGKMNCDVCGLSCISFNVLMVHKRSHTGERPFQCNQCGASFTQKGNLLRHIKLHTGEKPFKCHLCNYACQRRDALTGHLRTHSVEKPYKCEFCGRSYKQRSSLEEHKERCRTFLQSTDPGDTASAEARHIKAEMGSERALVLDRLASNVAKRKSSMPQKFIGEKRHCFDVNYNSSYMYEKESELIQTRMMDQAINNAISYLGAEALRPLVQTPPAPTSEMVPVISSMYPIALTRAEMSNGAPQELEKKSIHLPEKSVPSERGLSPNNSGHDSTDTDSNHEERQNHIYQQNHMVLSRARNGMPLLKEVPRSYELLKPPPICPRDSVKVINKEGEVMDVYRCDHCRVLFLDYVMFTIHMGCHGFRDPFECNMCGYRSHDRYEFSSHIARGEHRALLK
IKZF3 protein, sequence (Q96SW2 whole entry): as the sequence (Q96SW2 whole entry) above
IKZF3 protein, sequence (Q16531 whole entry partner): as the sequence (Q16531 whole entry partner) above
IKZF1 protein, sequence (Q13422 whole entry): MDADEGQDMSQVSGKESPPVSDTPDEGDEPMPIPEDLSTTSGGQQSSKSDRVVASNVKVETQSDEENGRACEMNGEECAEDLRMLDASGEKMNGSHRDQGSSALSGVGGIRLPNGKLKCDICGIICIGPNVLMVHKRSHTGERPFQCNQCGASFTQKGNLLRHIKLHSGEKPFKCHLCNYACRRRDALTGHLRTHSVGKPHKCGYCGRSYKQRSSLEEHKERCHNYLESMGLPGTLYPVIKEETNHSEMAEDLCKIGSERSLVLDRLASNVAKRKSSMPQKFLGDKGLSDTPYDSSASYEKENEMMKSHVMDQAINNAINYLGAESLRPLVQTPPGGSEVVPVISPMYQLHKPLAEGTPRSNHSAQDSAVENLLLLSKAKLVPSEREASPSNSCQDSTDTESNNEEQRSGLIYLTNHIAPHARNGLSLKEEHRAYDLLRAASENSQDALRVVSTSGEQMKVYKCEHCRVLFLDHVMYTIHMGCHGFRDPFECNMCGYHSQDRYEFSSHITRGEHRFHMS
IKZF1 protein, sequence (Q96SW2 whole entry): as the sequence (Q96SW2 whole entry) above
IKZF1 protein, sequence (Q16531 whole entry partner): as the sequence (Q16531 whole entry partner) above
human Cereblon WT GST-tagged protein, sequence (Q96SW2 whole entry): as the sequence (Q96SW2 whole entry) above

SMILES	IC50 [4] [nM]	concentration at which significant degradation effects on IKZF1 protein are exhibited (FIG. 1) [1, 5]	concentration at which significant degradation effects on GSPT1 protein are exhibited (FIG. 1) [2, 5]	concentration at which significant degradation effects on IKZF3 protein are exhibited (FIG. 1) [3, 5]	residual substrate protein level, IKZF1 [1]	residual substrate protein level, GSPT1 [2]	residual substrate protein level, IKZF3 [3]
CC1(C)CCC(CN2CC3CC(C2)N3C(=O)c2ccc3c(c2)CN(C2CCC(=O)NC2=O)C3=O)=C(c2ccc(F)cc2)C1 (stereo not shown) [GT-05450, 3-(5-(3-((4′-fluoro-5,5-dimethyl-3,4,5,6-tetrahydro-[1,1′-biphenyl]-2-yl)methyl)-3,6-diazabicyclo[3.1.1]heptane-6-carbonyl)-1-oxoisoindolin-2-yl)piperidine-2,6-dione]	890	–	–	–	B (B represents a residual substrate protein level of >50%)	A (A represents a residual substrate protein level of <50%)	B (B represents a residual substrate protein level of >50%)
O=C1CCC(N2Cc3cc(CN4C5CC4CN(C(=O)c4ccccc4-c4ccc(Cl)cc4)C5)ccc3C2=O)C(=O)N1 (stereo not shown) [GT-05665, 3-(5-((3-(4′-chloro-[1,1′-biphenyl]-2-carbonyl)-3,6-diazabicyclo[3.1.1]heptan-6-yl)methyl)-1-oxoisoindolin-2-yl)piperidine-2,6-dione]	600	–	–	–	B (B represents a residual substrate protein level of >50%)	A (A represents a residual substrate protein level of <50%)	B (B represents a residual substrate protein level of >50%)
CC1(C)CCC(CN2CC3CCC(C2)N3Cc2ccc3c(c2)CN(C2CCC(=O)NC2=O)C3=O)=C(c2ccc(F)cc2)C1 (stereo not shown) [GT-05400, 3-(5-((3-((4′-fluoro-5,5-dimethyl-3,4,5,6-tetrahydro-[1,1′-biphenyl]-2-yl)methyl)-3,8-diazabicyclo[3.2.1]octan-8-yl)methyl)-1-oxoisoindolin-2-yl)piperidine-2,6-dione]	840	–	–	–	B (B represents a residual substrate protein level of >50%)	A (A represents a residual substrate protein level of <50%)	B (B represents a residual substrate protein level of >50%)
CC1(C)CCC(CN2CC3CC(C2)N3Cc2ccc3c(c2)CN(C2CCC(=O)NC2=O)C3=O)=C(c2ccc(F)cc2)C1 (stereo not shown) [GT-05399, 3-(5-((3-((4′-fluoro-5,5-dimethyl-3,4,5,6-tetrahydro-[1,1′-biphenyl]-2-yl)methyl)-3,6-diazabicyclo[3.1.1]heptan-6-yl)methyl)-1-oxoisoindolin-2-yl)piperidine-2,6-dione]	430	–	–	–	B (B represents a residual substrate protein level of >50%)	A (A represents a residual substrate protein level of <50%)	B (B represents a residual substrate protein level of >50%)
O=C1CCC(N2Cc3cc(CN4CCN(C(=O)c5ccccc5-c5ccc(F)cc5)CC4)ccc3C2=O)C(=O)N1 (stereo not shown) [GT-04194, 3-(5-((4-(4′-fluoro-[1,1′-biphenyl]-2-carbonyl)piperazin-1-yl)methyl)-1-oxoisoindolin-2-yl)piperidine-2,6-dione]	1160	below 30 nM	below 30 nM	below 30 nM	B (B represents a residual substrate protein level of >50%)	A (A represents a residual substrate protein level of <50%)	A (A represents a residual substrate protein level of <50%)

More lines, main results first:

IC50 [4] [nM]	concentration at which significant degradation effects on IKZF1 protein are exhibited (FIG. 1) [1, 5]	concentration at which significant degradation effects on GSPT1 protein are exhibited (FIG. 1) [2, 5]	concentration at which significant degradation effects on IKZF3 protein are exhibited (FIG. 1) [3, 5]	SMILES	residual substrate protein level, IKZF1 [1]	residual substrate protein level, GSPT1 [2]	residual substrate protein level, IKZF3 [3]
620	–	–	–	CC1(C)CCC(C(=O)N2CC(O)(C(O)c3ccc4c(c3)CN(C3CCC(=O)NC3=O)C4=O)C2)=C(c2ccc(Cl)cc2)C1 (stereo not shown) [GT-05426, 3-(5-((1-(4′-chloro-5,5-dimethyl-3,4,5,6-tetrahydro-[1,1′-biphenyl]-2-carbonyl)-3-hydroxyazetidin-3-yl)(hydroxy)methyl)-1-oxoisoindolin-2-yl)piperidine-2,6-dione]	B (B represents a residual substrate protein level of >50%)	A (A represents a residual substrate protein level of <50%)	A (A represents a residual substrate protein level of <50%)
200	–	–	–	CC1(C)CCC(CN2CCN(Cc3ccc4c(c3)CN(C3CCC(=O)NC3=O)C4=O)C(C(F)(F)F)C2)=C(c2ccc(Cl)cc2)C1 (stereo not shown) [GT-05796, 3-(5-((4-((4′-chloro-5,5-dimethyl-3,4,5,6-tetrahydro-[1,1′-biphenyl]-2-yl)methyl)-2-(trifluoromethyl)piperazin-1-yl)methyl)-1-oxoisoindolin-2-yl)piperidine-2,6-dione]	B (B represents a residual substrate protein level of >50%)	A (A represents a residual substrate protein level of <50%)	B (B represents a residual substrate protein level of >50%)
590	–	–	–	O=C1CCC(N2Cc3cc(CN4CC5CN(Cc6ccccc6-c6ccc(Cl)cc6)CC5C4)ccc3C2=O)C(=O)N1 (stereo not shown) [GT-05613, 3-(5-((5-((4′-chloro-[1,1′-biphenyl]-2-yl)methyl)hexahydropyrrolo[3,4-c]pyrrol-2(1H)-yl)methyl)-1-oxoisoindolin-2-yl)piperidine-2,6-dione]	B (B represents a residual substrate protein level of >50%)	B (B represents a residual substrate protein level of >50%)	A (A represents a residual substrate protein level of <50%)
730	–	–	–	CC1(C)CCC(C(=O)N2CC(=Cc3ccc4c(c3)CN(C3CCC(=O)NC3=O)C4=O)C2)=C(c2ccc(Cl)cc2)C1 (stereo not shown) [GT-05420, 3-(5-((1-(4′-chloro-5,5-dimethyl-3,4,5,6-tetrahydro-[1,1′-biphenyl]-2-carbonyl)azetidin-3-ylidene)methyl)-1-oxoisoindolin-2-yl)piperidine-2,6-dione]	B (B represents a residual substrate protein level of >50%)	A (A represents a residual substrate protein level of <50%)	B (B represents a residual substrate protein level of >50%)
730	–	–	–	CC1(C)CCC(CN2CCCN(Cc3ccc4c(c3)CN(C3CCC(=O)NC3=O)C4=O)CC2)=C(c2ccc(F)cc2)C1 (stereo not shown) [GT-05504, 3-(5-((4-((4′-fluoro-5,5-dimethyl-3,4,5,6-tetrahydro-[1,1′-biphenyl]-2-yl)methyl)-1,4-diazepan-1-yl)methyl)-1-oxoisoindolin-2-yl)piperidine-2,6-dione]	A (A represents a residual substrate protein level of <50%)	B (B represents a residual substrate protein level of >50%)	A (A represents a residual substrate protein level of <50%)
740	–	–	–	CC1(C)CCC(C(=O)N2CC3CN(Cc4ccc5c(c4)CN(C4CCC(=O)NC4=O)C5=O)CC3C2)=C(c2ccc(Cl)cc2)C1 (stereo not shown) [GT-05658, 3-(5-((5-(4′-chloro-5,5-dimethyl-3,4,5,6-tetrahydro-[1,1′-biphenyl]-2-carbonyl)hexahydropyrrolo[3,4-c]pyrrol-2(1H)-yl)methyl)-1-oxoisoindolin-2-yl)piperidine-2,6-dione]	B (B represents a residual substrate protein level of >50%)	B (B represents a residual substrate protein level of >50%)	A (A represents a residual substrate protein level of <50%)
620	–	–	–	CC1(C)CCC(CN2CC3(C2)CN(Cc2ccc4c(c2)CN(C2CCC(=O)NC2=O)C4=O)C3)=C(c2ccc(F)cc2)C1 (stereo not shown) [GT-05670, 3-(5-((6-((4′-fluoro-5,5-dimethyl-3,4,5,6-tetrahydro-[1,1′-biphenyl]-2-yl)methyl)-2,6-diazaspiro[3.3]heptan-2-yl)methyl)-1-oxoisoindolin-2-yl)piperidine-2,6-dione]	A (A represents a residual substrate protein level of <50%)	A (A represents a residual substrate protein level of <50%)	A (A represents a residual substrate protein level of <50%)
1170	–	–	–	CC1(C)CCC(C(=O)N2CCC3(CC2)CN(C(=O)c2ccc4c(c2)CN(C2CCC(=O)NC2=O)C4=O)C3)=C(c2ccc(Cl)cc2)C1 (stereo not shown) [GT-05657, 3-(5-(7-(4′-chloro-5,5-dimethyl-3,4,5,6-tetrahydro-[1,1′-biphenyl]-2-carbonyl)-2,7-diazaspiro[3.5]nonane-2-carbonyl)-1-oxoisoindolin-2-yl)piperidine-2,6-dione]	B (B represents a residual substrate protein level of >50%)	B (B represents a residual substrate protein level of >50%)	B (B represents a residual substrate protein level of >50%)
